Results on two molecules are retold here after US7731994B2, “Pharmaceutical composition for protecting neurons comprising extract of lithospermum erythrothizon SIEB. ET. Zucc or acetylshikonin isolated therefrom as an effective ingredient” (Industry Academic Cooperation Foundation of Kyunghee …, priority 2007, dated 2010).

The test system of assay [1] is BV-2 cells activated by lipopolysaccharide. The experiment in a line: NO generation (Griess reagent) in BV-2 cells activated by lipopolysaccharide. The assay is classed as cell-based. The following applies: 100 ng/ml lipopolysaccharide. How it is done: (§1) To investigate the effect of acetylshikonin on the activation of microglia cells which are macrophages in brain, NO generation was measured in BV-2 cells and primary microglia cells which are neuroglia cells, activated by lipopolysaccharide according to the previously reported methods with slight modifications (Min Kim J, et al., Neuroreport, 14(15), pp1941-1944, 2003).
(§2) BV-2 cells (Lab. of Dr. Eui-Ju Choi, Korea University) were maintained in DMEM (Dulbeccols Modified Eagle Medium, Gibco-BRL, England) supplemented with 10% FBS (Fetal Bovine Serum, Gibco-BRL, England) and 1% penicillin-streptomycin (Gibco-BRL, England). To obtain the primary microglia cells, brain cells were separated from the brain extracted from Sprague-Dawley rat (Taconic, Japan) at less than 1 week from the birth and the cells were cultured for approximately 2 weeks in DMEM having the same composition with the one used for BV-2 cell culture in a 75T flask and then the primary microglia cells were recovered. BV-2 cells and the primary microglia cells were distributed into a 96 well plate at the concentration of […] and then cultured in a 37° C., 5% CO2 incubator for overnight. […] OD570 was measured by Elyzerleader (Moleulat Device, USA) and the concentration was calculated by considering the level of sodium nitrite as standard.

Assay [2] has as its system primary microglia cells activated by lipopolysaccharide. Briefly: NO generation (Griess reagent) in primary microglia cells activated by lipopolysaccharide. The assay is classed as cell-based, Sprague-Dawley rat. Conditions: 100 ng/ml lipopolysaccharide. How it is done:
as §1, §2

For assay [3], the system named is rats with local brain ischemia induced by middle cerebral arterial occlusion. The experiment in a line: Defensive effect in rats with local brain ischemia induced by middle cerebral arterial occlusion (TTC staining, infarct volume). The assay is classed as in vivo, Sprague-dawley male rats. Conditions: right after and 120 minutes after brain ischemia was induced, MCAo 120 min, 22 hours reperfusion. The method, then:
Sprague-dawley male rats at 8 weeks having the weight of 280 g-300 g were purchased from Samtako, Inc., Korea. The rats were supplied with feed and water enough and adapted to the experimental environment for one week. Middle cerebral arterial occlusion was performed by intraluminal suture method based on the method of Zea longa, et al (Zea longa, et al., Stroke, 20, pp 84-91, 1989). Once middle cerebral artery of a rat is closed, blood flow is interrupted around middle cerebral arterial region so that oxygen and other energy source are exhausted, leading to cell death. In particular, tissue necrosis is observed in the center of the middle cerebral arterial region, striatum and temporal lobe, which is so called 'ischemic core'. Although not middle cerebral arterial region, the neighboring cells begin to be auto-destroyed, which is called '[…] penumbra'. 3 hours after blocking middle cerebral artery, necrosis starts and from 6 hours after blocking, cerebral ischemia is developed. The progress of cerebral ischemia continues for 24 hours after middle cerebral artery was closed for 120 minutes, and on the 3rd day, it reaches the highest degree. To measure the level of cerebral ischemia, it is necessary to measure correlated infarct volume (mm^3). […] Blood sugar and blood gas were measured from the blood sample. […]

Another assay deals with iNOS mRNA. Briefly: RT-PCR of iNOS mRNA expression in primary microglia cells activated by lipopolysaccharide. Type of assay: cell-based, Sprague-Dawley rat. The following applies: 100 ng/ml lipopolysaccharide co-treated with 0.1, 1 uM, 24 hours. The method, then:
To investigate the inhibition of iNOS mRNA expression by acetylshikonin, […] was performed.
The primary microglia cells cultured in DMEM supplemented with 10% FBS and 1% penicillin-streptomycin were distributed in a 6 well plate at the concentration of 4×10^6 cells/well, followed by culture for 24 hours. 100 ng/ml of lipopolysaccharide and 0.1, 1 uM of acetylshikonin were co-treated thereto, followed by activation of the cells for 24 hours. The control group was not treated with lipopolysaccaride. After 24 hours of activation, the culture medium was discarded and the cells were washed with cold PBS ([…]), to which trypsin was treated. 1 ml of PBS containing the cells was obtained, followed by centrifugation at 12,000 rpm for 2 minutes to separate the cells. The cells were lysed in RNA separation solution (easyblue) to extract RNA from the cells, followed by centrifugation at 12,000 rpm for 15 minutes. After treating chloroform, centrifugation was performed again at 13,000 rpm for 25 minutes and the supernatant was obtained and washed with isopropanol to extract RNA. cDNA was synthesized using 5 ug of the RNA and 5 μmol of primer at 45° C., followed by PCR. […]

A further assay has as its system IL-1beta mRNA. Briefly: RT-PCR of IL-1beta mRNA expression in primary microglia cells activated by lipopolysaccharide. Conditions: 100 ng/ml lipopolysaccharide co-treated with 0.1, 1 uM, 24 hours. The assay is classed as cell-based, Sprague-Dawley rat.
The subject of another assay is TNF-alpha mRNA. Briefly: RT-PCR of TNF-alpha mRNA expression in primary microglia cells activated by lipopolysaccharide. The assay is classed as cell-based, Sprague-Dawley rat. Conditions: 100 ng/ml lipopolysaccharide co-treated with 0.1, 1 uM, 24 hours.
The subject of the next assay is iNOS. Briefly: Western blot of iNOS expression in primary microglia cells activated by lipopolysaccharide. The following applies: 100 ng/ml lipopolysaccharide co-treated with 0.1, 1 uM, 24 hours. Type of assay: cell-based, Sprague-Dawley rat. How it is done:
(§3) Western blot analysis was performed to investigate the inhibition of iNOS expression by acetylshikonin.
(§4) The primary microglia cells cultured in DMEM supplemented with 10% FBS and 1% penicillin-streptomycin were distributed in a 6 well plate at the concentration of 4×10^6 cells/well, followed by culture for 24 hours. 100 ng/ml of lipopolysaccharide and 0.1, 1 uM of acetylshikonin were co-treated thereto, followed by activation of the cells for 24 hours. The control group was not treated with lipopolysaccaride. After 24 hours of activation, the culture medium was discarded and the cells were washed with cold PBS, to which trypsin was treated. 1 ml of PBS containing the cells was obtained, followed by centrifugation at 12,000 rpm for 2 minutes to separate the cells. The cells were loaded in 50 μl of triple lysis buffer to decompose all the cell membranes and then centrifugation was performed at 12,000 rpm for 30 minutes to obtain supernatant, a protein layer. The obtained supernatant was diluted and protein was quantified by Bradford method. After quantification, an equal amount of protein proceeded onto 8% polyacrylamide gel electrophoresis. The separated proteins from the electrophoresis were transferred onto Hybond ECL nitrocellulose membrane, leading to the reaction with primary and secondary antibodies of iNOS and IL-1beta. ECL examination was performed.

For another assay, the system named is IL-1beta. The experiment in a line: Western blot of IL-1beta expression in primary microglia cells activated by lipopolysaccharide. Conditions: 100 ng/ml lipopolysaccharide co-treated with 0.1, 1 uM, 24 hours. The assay is classed as cell-based, Sprague-Dawley rat. The method, then: as §3, §4
Where [4] appears, read: 24 hours, 0.5 mM positive control.
Setting [5] is: 24 hours, 0.1, 0.5 and 1 uM tested, inhibition stated at 1 uM.

Each structure is given as a SMILES string. “Also recorded” adds a separate entry of the source.

In the case of `CNC(=N)NCCC[C@H](N)C(=O)O` [positive control, N super(G)-monomethyl-L-arginine, reference compound], the NO generation entry in assay [1] (setting [4]) and in assay [2] (setting [4]) was “inhibition of NO generation” each time.

As to `CC(=O)O[C@H](CC=C(C)C)C1=CC(=O)c2c(O)ccc(O)c2C1=O` [acetylshikonin], the “protective effect on brain tissue damage, compared with the control” value in assay [3] (1 mg/kg orally) is reported as around 46.88%; in assay [3] (3 mg/kg orally), 68.75%. For the same molecule, the NO generation result in assay [1] (setting [5]) and in assay [2] (setting [5]) was “inhibited the generation of nitric oxide dose dependently; also recorded: inhibition of NO generation” in each case. In addition, in the assay on iNOS mRNA, the “expression of mRNA of iNOS” value is recorded as “inhibited”. For the same molecule, the “expression of mRNA of IL-1beta” value with IL-1beta mRNA is “inhibited”. Besides, the “expression of mRNA of TNF-alpha” value in the assay with TNF-alpha mRNA is reported as “inhibited”. For the same molecule, in the assay with iNOS, the “expression of iNOS (protein)” value is recorded as “inhibited”. Moreover, the “expression of IL-1beta (protein)” value in the assay on IL-1beta is reported as “inhibited”.
